Data reported in US10112937B2, “P2X7 modulators and methods of use” (Janssen Pharmaceutica NV, priority 2013, dated 2018).

biological target: human P2X7 (Homo sapiens (Human), UniProt Q99572); experiment: P2X7 antagonism in human PBMCs (IL-1β release after LPS + Bz-ATP, ELISA); format: cell-based; details: human PBMCs, test compound 1 μM
Sequence (Q99572 whole entry): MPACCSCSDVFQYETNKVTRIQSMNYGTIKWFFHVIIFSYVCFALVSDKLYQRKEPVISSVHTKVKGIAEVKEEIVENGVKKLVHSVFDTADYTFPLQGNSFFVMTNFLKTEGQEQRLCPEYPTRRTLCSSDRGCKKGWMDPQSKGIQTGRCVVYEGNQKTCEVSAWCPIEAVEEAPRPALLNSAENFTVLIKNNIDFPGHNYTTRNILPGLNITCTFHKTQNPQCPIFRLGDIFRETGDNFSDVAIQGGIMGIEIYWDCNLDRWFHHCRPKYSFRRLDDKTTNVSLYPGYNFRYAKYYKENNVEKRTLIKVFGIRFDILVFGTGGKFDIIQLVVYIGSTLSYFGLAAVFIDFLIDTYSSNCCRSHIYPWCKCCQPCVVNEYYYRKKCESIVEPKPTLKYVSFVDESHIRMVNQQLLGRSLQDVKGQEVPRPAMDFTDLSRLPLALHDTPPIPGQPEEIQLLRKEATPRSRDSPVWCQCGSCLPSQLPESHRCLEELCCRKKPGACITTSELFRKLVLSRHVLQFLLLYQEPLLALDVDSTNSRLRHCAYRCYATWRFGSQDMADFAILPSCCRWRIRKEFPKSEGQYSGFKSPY

Compound | PBMC 1 μM (% control)
Cn1nc2c(c1-c1ccc(F)cc1)CCN(C(=O)c1cccc(Cl)c1Cl)C2 [Example 326, (2,3-dichlorophenyl)(3-(4-fluorophenyl)-2-methyl-4,5-dihydro-2H-pyrazolo[3,4-c]pyridin-6(7H)-yl)methanone] | 92.0 % control
Cn1nc2c(c1-c1ccncc1)CCN(C(=O)c1cccc(Cl)c1Cl)C2 [Example 328, (2,3-dichlorophenyl)(2-methyl-3-(pyridin-4-yl)-4,5-dihydro-2H-pyrazolo[3,4-c]pyridin-6(7H)-yl)methanone] | 88.0 % control

same assay, conditions: human PBMCs, test compound 10 μM

PBMC 10 μM (% control) | Compound
1.5 % control | Cc1ccnc(-n2nnc3c2CCN(C(=O)c2cccc(C(F)(F)F)c2Cl)C3C)c1 (stereo not shown) [Example 299, (2-chloro-3-(trifluoromethyl)phenyl)(4-methyl-1-(4-methylpyridin-2-yl)-6,7-dihydro-1H-[1,2,3]triazolo[4,5-c]pyridin-5(4H)-yl)methanone]
−1.8 % control | Cc1cc(C)nc(-n2nnc3c2CCN(C(=O)c2cccc(C(F)(F)F)c2Cl)C3C)c1 (stereo not shown) [Example 300, (2-chloro-3-(trifluoromethyl)phenyl)(1-(4,6-dimethylpyridin-2-yl)-4-methyl-6,7-dihydro-1H-[1,2,3]triazolo[4,5-c]pyridin-5(4H)-yl)methanone]
−2.2 % control | Cc1ccc(-n2nnc3c2CCN(C(=O)c2cccc(C(F)(F)F)c2Cl)C3C)nc1 (stereo not shown) [Example 301, (2-chloro-3-(trifluoromethyl)phenyl)(4-methyl-1-(5-methylpyridin-2-yl)-6,7-dihydro-1H-[1,2,3]triazolo[4,5-c]pyridin-5(4H)-yl)methanone]
−2.8 % control | Cc1cccc(-n2nnc3c2CCN(C(=O)c2cccc(C(F)(F)F)c2Cl)C3C)n1 (stereo not shown) [Example 302, (2-chloro-3-(trifluoromethyl)phenyl)(4-methyl-1-(6-methylpyridin-2-yl)-6,7-dihydro-1H-[1,2,3]triazolo[4,5-c]pyridin-5(4H)-yl)methanone]
3.2 % control | C[C@H]1Cc2c(nnn2-c2ncc(F)cn2)CN1C(=O)c1cccc(C(F)(F)F)c1 [Example 304, (S)-(1-(5-fluoropyrimidin-2-yl)-6-methyl-6,7-dihydro-1H-[1,2,3]triazolo[4,5-c]pyridin-5(4H)-yl)(3-(trifluoromethyl)phenyl)methanone]
2.2 % control | C[C@H]1Cc2c(nnn2-c2ncc(F)cn2)CN1C(=O)c1cc(F)cc(C(F)(F)F)c1 [Example 307, (S)-(3-fluoro-5-(trifluoromethyl)phenyl)(1-(5-fluoropyrimidin-2-yl)-6-methyl-6,7-dihydro-1H-[1,2,3]triazolo[4,5-c]pyridin-5(4H)-yl)methanone]
1.4 % control | C[C@@H]1Cc2c(nnn2-c2ccn[nH]2)[C@H](C)N1C(=O)c1cccc(C(F)(F)F)c1Cl [Example 309, (2-chloro-3-(trifluoromethyl)phenyl)((4S,6R)-4,6-dimethyl-1-(1H-pyrazol-5-yl)-6,7-dihydro-1H-[1,2,3]triazolo[4,5-c]pyridin-5(4H)-yl)methanone]
8.8 % control | O=C(c1cccc(C(F)(F)F)c1Cl)N1CCc2c(ncn2-c2ccc(F)cn2)C1 [Example 315, (2-chloro-3-(trifluoromethyl)phenyl)(1-(5-fluoropyridin-2-yl)-6,7-dihydro-1H-imidazo[4,5-c]pyridin-5(4H)-yl)methanone]
−6.8 % control | C[C@H]1Cc2c(nnn2-c2ccn[nH]2)[C@H](C)N1C(=O)c1cccc(C(F)(F)F)c1Cl [Example 319, (2-chloro-3-(trifluoromethyl)phenyl)((4S,6S)-4,6-dimethyl-1-(1H-pyrazol-5-yl)-6,7-dihydro-1H-[1,2,3]triazolo[4,5-c]pyridin-5(4H)-yl)methanone]
−11.0 % control | Cc1nc2c(n1-c1ccccc1)CCN(C(=O)c1cccc(Cl)c1Cl)C2 [Example 331, (2,3-dichlorophenyl)(2-methyl-1-phenyl-6,7-dihydro-1H-imidazo[4,5-c]pyridin-5(4H)-yl)methanone]
−9.5 % control | CCc1nc2c(n1-c1ccccc1)CCN(C(=O)c1cccc(Cl)c1Cl)C2 [Example 332, (2,3-dichlorophenyl)(2-ethyl-1-phenyl-6,7-dihydro-1H-imidazo[4,5-c]pyridin-5(4H)-yl)methanone]
6.9 % control | C[C@H]1c2nnn(-c3cncnc3)c2CCN1C(=O)c1cccc(C(F)(F)F)c1Cl [Example 333, (S)-(2-chloro-3-(trifluoromethyl)phenyl)(4-methyl-1-(pyrimidin-5-yl)-6,7-dihydro-1H-[1,2,3]triazolo[4,5-c]pyridin-5(4H)-yl)methanone]
−0.5 % control | Cc1ccc(-n2nnc3c2CCN(C(=O)c2cccc(Cl)c2Cl)C3C)nc1 (stereo not shown) [Example 336, (2,3-dichlorophenyl)(4-methyl-1-(5-methylpyridin-2-yl)-6,7-dihydro-1H-[1,2,3]triazolo[4,5-c]pyridin-5(4H)-yl)methanone]

Further lines, the molecule ahead of its results:

Compound | PBMC 10 μM (% control)
CC1Cc2c(-c3ccnn3C)nn(C)c2CN1C(=O)c1cccc(C(F)(F)F)c1Cl (stereo not shown) [Example 266, (2-chloro-3-(trifluoromethyl)phenyl)(1,5-dimethyl-3-(1-methyl-1H-pyrazol-5-yl)-4,5-dihydro-1H-pyrazolo[3,4-c]pyridin-6(7H)-yl)methanone] | 5.8 % control
O=C(c1ccc(Cl)cc1F)N1CCc2c(nnn2-c2cnccn2)C1 [Example 272, (4-chloro-2-fluorophenyl)(1-(pyrazin-2-yl)-6,7-dihydro-1H-[1,2,3]triazolo[4,5-c]pyridin-5(4H)-yl)methanone] | −7.6 % control
CC1c2nnn(-c3cnccn3)c2CCN1C(=O)c1cccc(C(F)(F)F)c1F (stereo not shown) [Example 273, (2-fluoro-3-(trifluoromethyl)phenyl)(4-methyl-1-(pyrazin-2-yl)-6,7-dihydro-1H-[1,2,3]triazolo[4,5-c]pyridin-5(4H)-yl)methanone] | −2.1 % control
CC1c2nnn(-c3cnccn3)c2CCN1C(=O)c1ccc(Cl)cc1F (stereo not shown) [Example 274, (4-chloro-2-fluorophenyl)(4-methyl-1-(pyrazin-2-yl)-6,7-dihydro-1H-[1,2,3]triazolo[4,5-c]pyridin-5(4H)-yl)methanone] | −4.8 % control
CC1c2nnn(-c3ncccn3)c2CCN1C(=O)c1ccc(Cl)cc1F (stereo not shown) [Example 275, (4-chloro-2-fluorophenyl)(4-methyl-1-(pyrimidin-2-yl)-6,7-dihydro-1H-[1,2,3]triazolo[4,5-c]pyridin-5(4H)-yl)methanone] | −8.3 % control
Cc1c(C(=O)N2CCc3c(nnn3-c3cnccn3)C2)cccc1C(F)(F)F [Example 276, (2-methyl-3-(trifluoromethyl)phenyl)(1-(pyrazin-2-yl)-6,7-dihydro-1H-[1,2,3]triazolo[4,5-c]pyridin-5(4H)-yl)methanone] | −0.9 % control
Cc1c(C(=O)N2CCc3c(nnn3-c3ncccn3)C2C)cccc1C(F)(F)F (stereo not shown) [Example 282, (4-methyl-1-(pyrimidin-2-yl)-6,7-dihydro-1H-[1,2,3]triazolo[4,5-c]pyridin-5(4H)-yl)(2-methyl-3-(trifluoromethyl)phenyl)methanone] | −5.5 % control
CC1c2nnn(-c3ncccn3)c2CCN1C(=O)c1ccc(Cl)cc1Cl (stereo not shown) [Example 283, (2,4-dichlorophenyl)(4-methyl-1-(pyrimidin-2-yl)-6,7-dihydro-1H-[1,2,3]triazolo[4,5-c]pyridin-5(4H)-yl)methanone] | −6.3 % control
C[C@H]1Cc2c(nnn2-c2ccc(F)cc2)[C@H](C)N1C(=O)c1cccc(C(F)(F)F)c1Cl [Example 285, (2-chloro-3-(trifluoromethyl)phenyl)((4S,6S)-1-(4-fluorophenyl)-4,6-dimethyl-6,7-dihydro-1H-[1,2,3]triazolo[4,5-c]pyridin-5(4H)-yl)methanone] | −2.6 % control
C[C@@H]1Cc2c(nnn2-c2ccc(F)cc2)[C@H](C)N1C(=O)c1cccc(C(F)(F)F)c1Cl [Example 286, (2-chloro-3-(trifluoromethyl)phenyl)((4S,6R)-1-(4-fluorophenyl)-4,6-dimethyl-6,7-dihydro-1H-[1,2,3]triazolo[4,5-c]pyridin-5(4H)-yl)methanone] | 5.8 % control
C[C@@H]1c2nnn(-c3ccc(F)cc3)c2C[C@H](C)N1C(=O)c1cccc(C(F)(F)F)c1Cl [Example 287, (2-chloro-3-(trifluoromethyl)phenyl)((4R,6S)-1-(4-fluorophenyl)-4,6-dimethyl-6,7-dihydro-1H-[1,2,3]triazolo[4,5-c]pyridin-5(4H)-yl)methanone] | −4.1 % control
C[C@H]1Cc2c(nnn2-c2ccccc2)CN1C(=O)c1cccc(C(F)(F)F)c1Cl [Example 288, (S)-(2-chloro-3-(trifluoromethyl)phenyl)(6-methyl-1-phenyl-6,7-dihydro-1H-[1,2,3]triazolo[4,5-c]pyridin-5(4H)-yl)methanone] | 4.4 % control
C[C@@H]1Cc2c(nnn2-c2ccn[nH]2)[C@@H](C)N1C(=O)c1cccc(C(F)(F)F)c1Cl [Example 296, (2-chloro-3-(trifluoromethyl)phenyl)((4R,6R)-4,6-dimethyl-1-(1H-pyrazol-5-yl)-6,7-dihydro-1H-[1,2,3]triazolo[4,5-c]pyridin-5(4H)-yl)methanone] | 3.6 % control
C[C@@H]1Cc2c(nnn2-c2ccn[nH]2)[C@H](C)N1C(=O)c1cccc(C(F)(F)F)c1Cl [Example 297, (2-chloro-3-(trifluoromethyl)phenyl)((4S,6R)-4,6-dimethyl-1-(1H-pyrazol-5-yl)-6,7-dihydro-1H-[1,2,3]triazolo[4,5-c]pyridin-5(4H)-yl)methanone] | 2.6 % control
CC1c2nn(COCC[Si](C)(C)C)c(-c3ncc(F)cn3)c2CCN1C(=O)c1cccc(C(F)(F)F)c1Cl (stereo not shown) [Example 303, (2-chloro-3-(trifluoromethyl)phenyl)(3-(5-fluoropyrimidin-2-yl)-7-methyl-2-((2-(trimethylsilyl)ethoxy)methyl)-4,5-dihydro-2H-pyrazolo[3,4-c]pyridin-6(7H)-yl)methanone] | −1.6 % control

same assay, conditions: test compound 10 μM, LPS 30 ng/ml + 0.5 mM Bz-ATP

Compound | PBMC 10 μM (% control)
C[C@@H]1c2nnn(-c3ccc(F)cc3)c2C[C@H](C)N1C(=O)c1cccc(C(F)(F)F)c1Cl [Example 287, (2-chloro-3-(trifluoromethyl)phenyl)((4R,6S)-1-(4-fluorophenyl)-4,6-dimethyl-6,7-dihydro-1H-[1,2,3]triazolo[4,5-c]pyridin-5(4H)-yl)methanone] | −4.1 % control
